Experiment: Accelerated aging stability study at 40° C. for eleven days (impurities by HPLC, USP35)
Format: physicochemical
Conditions: in the liquid pharmaceutical composition throughout 11 days of accelerated aging at 40° C.
Description: A liquid pharmaceutical composition as described above, comprising ˜10 mg/mL docetaxel was diluted and subjected to accelerated aging at 40° C. for eleven days. The levels of impurities as specified by USP35 (United States Pharmacopeia 35) for taxane compositions were analyzed by HPLC at regular intervals. Stability was tested at 6 hours on day 0. Impurity levels in the liquid pharmaceutical compositions were compared to the allowable level according to the USP35 standard.

- Concentration of docetaxel: 9.52 mg/mL
Compound: CC(=O)O[C@@]12CO[C@@H]1C[C@H](O)[C@@]1(C)C(=O)[C@H](O)C3=C(C)[C@@H](OC(=O)[C@H](O)[C@@H](NC(=O)OC(C)(C)C)c4ccccc4)C[C@@](O)([C@@H](OC(=O)c4ccccc4)[C@H]21)C3(C)C [docetaxel]
